Data published in PubChem BioAssay (NCI).
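Interpolation was linear, between the two tested concentrations surrounding the appropriate level; five concentrations were tested over 48 hours in 96-well plates. GI50 marks 50% less growth. TGI denotes the concentration required for complete inhibition of growth.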

Key:
Test in all cases: NCI-60 cell line screen, 48 h
786-0 renal = system: 786-0 renal
A549 NSCLC = system: A549 NSCLC
ACHN renal = system: ACHN renal
BT-549 breast = system: BT-549 breast
CAKI-1 renal = system: CAKI-1 renal
CCRF-CEM leukemia = system: CCRF-CEM leukemia
COLO 205 colon = system: COLO 205 colon
DU-145 prostate = system: DU-145 prostate
EKVX NSCLC = system: EKVX NSCLC
HCC-2998 colon = system: HCC-2998 colon
HCT-116 colon = system: HCT-116 colon
HCT-15 colon = system: HCT-15 colon
HL-60(TB) leukemia = system: HL-60(TB) leukemia
HOP-62 NSCLC = system: HOP-62 NSCLC
HOP-92 NSCLC = system: HOP-92 NSCLC
HT29 colon = system: HT29 colon
K-562 leukemia = system: K-562 leukemia
KM12 colon = system: KM12 colon
LOX IMVI melanoma = system: LOX IMVI melanoma
M14 melanoma = system: M14 melanoma
MDA-MB-231 breast = system: MDA-MB-231 breast
MDA-MB-435 = system: MDA-MB-435
MOLT-4 leukemia = system: MOLT-4 leukemia
NCI-H226 lung = system: NCI-H226 lung
NCI-H23 lung = system: NCI-H23 lung
NCI-H460 lung = system: NCI-H460 lung
NCI-H522 lung = system: NCI-H522 lung
NCI/ADR-RES ovarian = system: NCI/ADR-RES ovarian
OVCAR-3 ovarian = system: OVCAR-3 ovarian
OVCAR-4 ovarian = system: OVCAR-4 ovarian
OVCAR-5 ovarian = system: OVCAR-5 ovarian
OVCAR-8 ovarian = system: OVCAR-8 ovarian
PC-3 prostate = system: PC-3 prostate
RXF 393 renal = system: RXF 393 renal
SF-268 CNS = system: SF-268 CNS
SF-295 CNS = system: SF-295 CNS
SK-MEL-2 melanoma = system: SK-MEL-2 melanoma
SK-MEL-28 melanoma = system: SK-MEL-28 melanoma
SK-MEL-5 melanoma = system: SK-MEL-5 melanoma
SK-OV-3 ovarian = system: SK-OV-3 ovarian
SN12C renal = system: SN12C renal
SNB-19 CNS = system: SNB-19 CNS
SR leukemia = system: SR leukemia
SW-620 colon = system: SW-620 colon
T-47D breast = system: T-47D breast
TK-10 renal = system: TK-10 renal
U251 CNS = system: U251 CNS
UACC-257 melanoma = system: UACC-257 melanoma
UACC-62 melanoma = system: UACC-62 melanoma
UO-31 renal = system: UO-31 renal
A498 renal = system: A498 renal
MALME-3M melanoma = system: MALME-3M melanoma

## CCC(C)CN=C(N)c1ccc(N2CCN(c3ccc(C(N)=NCC(C)CC)cc3)CC2)cc1 (centres undefined)
786-0 renal
  GI50: 7.33 µM
  TGI: 87.3 µM
A549 NSCLC
  GI50: 10.5 µM
  TGI: > 100 µM
ACHN renal
  GI50: 48 µM
  TGI: > 100 µM
BT-549 breast
  GI50: 2.91 µM
  TGI: 12.5 µM
CAKI-1 renal
  GI50: 30 µM
  TGI: 92.3 µM
CCRF-CEM leukemia
  GI50: 6.09 µM
  TGI: 40.7 µM
COLO 205 colon
  GI50: 23.4 µM
  TGI: > 100 µM
DU-145 prostate
  GI50: 5.72 µM
  TGI: > 100 µM
EKVX NSCLC
  GI50: 0.955 µM
  TGI: 23.3 µM
HCC-2998 colon
  GI50: 11.5 µM
  TGI: > 100 µM
HCT-116 colon
  GI50: 8.51 µM
  TGI: 60 µM
HCT-15 colon
  GI50: 26.5 µM
  TGI: > 100 µM
HL-60(TB) leukemia
  GI50: 10.9 µM
  TGI: 39.9 µM
HOP-62 NSCLC
  GI50: 4.51 µM
  TGI: 24.2 µM
HOP-92 NSCLC
  GI50: 0.29 µM
  TGI: 8.03 µM
HT29 colon
  GI50: 11 µM
  TGI: > 100 µM
K-562 leukemia
  GI50: 2.84 µM
  TGI: 14 µM
KM12 colon
  GI50: 7.25 µM
  TGI: 52 µM
LOX IMVI melanoma
  GI50: 12.1 µM
  TGI: 41.8 µM
M14 melanoma
  GI50: 8.64 µM
  TGI: 43.5 µM
MDA-MB-231 breast
  GI50: 6.19 µM
  TGI: 37.3 µM
MDA-MB-435
  GI50: 5.48 µM
  TGI: 28.5 µM
MOLT-4 leukemia
  GI50: 14.2 µM
  TGI: 38.4 µM
NCI-H226 lung
  GI50: 6.54 µM
  TGI: 31.3 µM
NCI-H23 lung
  GI50: 5.2 µM
  TGI: 36.3 µM
NCI-H460 lung
  GI50: 3.34 µM
  TGI: 19.1 µM
NCI-H522 lung
  GI50: 6.49 µM
  TGI: 27.2 µM
NCI/ADR-RES ovarian
  GI50: 85.6 µM
  TGI: > 100 µM
OVCAR-3 ovarian
  GI50: 3.45 µM
  TGI: 35.4 µM
OVCAR-4 ovarian
  GI50: 19.3 µM
  TGI: > 100 µM
OVCAR-5 ovarian
  GI50: 33 µM
  TGI: > 100 µM
OVCAR-8 ovarian
  GI50: 5.58 µM
  TGI: > 100 µM
PC-3 prostate
  GI50: 7.56 µM
  TGI: 69.3 µM
RXF 393 renal
  GI50: 15.9 µM
  TGI: 96.7 µM
SF-268 CNS
  GI50: 3.93 µM
  TGI: 17.4 µM
SF-295 CNS
  GI50: 2.9 µM
  TGI: 17.4 µM
SK-MEL-2 melanoma
  GI50: 8.67 µM
  TGI: 45.3 µM
SK-MEL-28 melanoma
  GI50: 16.9 µM
  TGI: 41.8 µM
SK-MEL-5 melanoma
  GI50: 1.71 µM
  TGI: 12.3 µM
SK-OV-3 ovarian
  GI50: 23.1 µM
  TGI: 79.8 µM
SN12C renal
  GI50: 2.3 µM
  TGI: 8.89 µM
SNB-19 CNS
  GI50: 12.9 µM
  TGI: 69.2 µM
SR leukemia
  GI50: 0.443 µM
  TGI: 3.01 µM
SW-620 colon
  GI50: 17 µM
  TGI: > 100 µM
T-47D breast
  GI50: 18.5 µM
  TGI: > 100 µM
TK-10 renal
  GI50: 15.1 µM
  TGI: > 100 µM
U251 CNS
  GI50: 3.69 µM
  TGI: 19.4 µM
UACC-257 melanoma
  GI50: 20.3 µM
  TGI: > 100 µM
UACC-62 melanoma
  GI50: 11.4 µM
  TGI: 28.1 µM
UO-31 renal
  GI50: 79.5 µM
  TGI: > 100 µM

## N=C(N)c1ccc(-c2ccc(-c3ccccc3)s2)s1
A498 renal
  GI50: < 0.01 µM
  TGI: 1.34 µM
BT-549 breast
  GI50: 0.0267 µM
  TGI: 2 µM
DU-145 prostate
  GI50: < 0.01 µM
  TGI: 1.1 µM
HCC-2998 colon
  GI50: 1.05 µM
  TGI: 2.36 µM
HL-60(TB) leukemia
  GI50: 0.0287 µM
  TGI: 1.43 µM
HOP-92 NSCLC
  GI50: 0.0655 µM
  TGI: 2.17 µM
M14 melanoma
  GI50: < 0.01 µM
  TGI: 0.0155 µM
MALME-3M melanoma
  GI50: 1.17 µM
  TGI: 2.59 µM
MDA-MB-231 breast
  GI50: 0.753 µM
  TGI: 2.5 µM
NCI-H23 lung
  GI50: < 0.01 µM
  TGI: 1.37 µM
OVCAR-5 ovarian
  GI50: 0.374 µM
  TGI: 2.45 µM
PC-3 prostate
  GI50: 0.249 µM
  TGI: 2.03 µM
SF-295 CNS
  GI50: 0.0321 µM
  TGI: 0.273 µM
SK-MEL-2 melanoma
  GI50: 1.76 µM
  TGI: 3.38 µM
SN12C renal
  GI50: 0.156 µM
  TGI: 1.95 µM
UACC-257 melanoma
  GI50: 0.156 µM
  TGI: 2.31 µM
UACC-62 melanoma
  GI50: 0.0156 µM
  TGI: 1.3 µM
